Test results published in patent US20210063413A1, “DENDRITIC CELL POTENCY ASSAY” (MEDIGENE IMMUNOTHERAPIES GMBH, priority 2017, published 2021).

Tested on: dendritic cells
Assay: IL-10/IL-12 secretion of stimulated dendritic cells (ELISA / ELISPOT) compared with the conventional Signal 3 Assay
Format: cell-based, human
Settings: especially immature DCs (iDCs) and Jonuleit maturated DCs; FIG. 4 ELISA, FIG. 5 ELISPOT
Method: Monocytes are isolated with adherent isolation followed by dendritic cell generation for 3 days using IL-4 and GMSCF. Afterwards dendritic cells were maturated with MDG cocktail and IL-4 and GMCSF for 24 h. In case of Jonuleit cocktails cells were incubated for 6 days using IL-4 and GMSCF. Then cells where incubated with the Jonuleit cocktail (and IL-4 and GMCSF) for 24 h. For all assays, frozen dendritic cells were used thawed the day before the assay and incubated in DC medium until assay start. Stimulation is carried out for 24 h in a 96 well plate. Therefore, 11,000 dendritic cells were seeded per well. 1.1 μl CD40L in 110 μl DC Medium (VLE RPMI 1640 with 1.5% human serum) 1 μg/ml LPS and R848 were added.
Elisa assay was performed according to the protocols of the human IL-10, IL12p70 respectively, DuoSet ELISA-Kit (R&D Systems, Inc, Minneapolis, USA).
The IL-10/IL-12 Elispot assay was carried out according to the protocol of the Human IL-10/IL-12 Double-Color ELISPOT kit of (C.T.L. Cellular technology Limited, Cleaveland, USA)

CCOCc1nc2c(N)nc3ccccc3c2n1CC(C)(C)O [R848, 4-amino-2-ethoxymethyl-α,α-dimethyl-1H-imidazol[4,5-c]quinoline-1-ethanol]
IL-10 secretion with R848 as costimulatory reagent added to CD40L: necessary as a costimulatory reagent for optimal IL-10 secretion
